Measurements taken from patent US9630947B2, “Therapeutic compounds and related methods of use” (OTSUKA PHARMACEUTICAL CO., LTD., priority 2009, dated 2017).

Each molecule was assayed against T1, purified STEP46 enzyme (Homo sapiens, UniProt P54829) (assay: STEP46 biochemical assay (DiFMUP fluorescence phosphatase assay)). Details: DiFMUP 10 μM, read-out: STEP IC50.
T1 sequence (P54829 1-565): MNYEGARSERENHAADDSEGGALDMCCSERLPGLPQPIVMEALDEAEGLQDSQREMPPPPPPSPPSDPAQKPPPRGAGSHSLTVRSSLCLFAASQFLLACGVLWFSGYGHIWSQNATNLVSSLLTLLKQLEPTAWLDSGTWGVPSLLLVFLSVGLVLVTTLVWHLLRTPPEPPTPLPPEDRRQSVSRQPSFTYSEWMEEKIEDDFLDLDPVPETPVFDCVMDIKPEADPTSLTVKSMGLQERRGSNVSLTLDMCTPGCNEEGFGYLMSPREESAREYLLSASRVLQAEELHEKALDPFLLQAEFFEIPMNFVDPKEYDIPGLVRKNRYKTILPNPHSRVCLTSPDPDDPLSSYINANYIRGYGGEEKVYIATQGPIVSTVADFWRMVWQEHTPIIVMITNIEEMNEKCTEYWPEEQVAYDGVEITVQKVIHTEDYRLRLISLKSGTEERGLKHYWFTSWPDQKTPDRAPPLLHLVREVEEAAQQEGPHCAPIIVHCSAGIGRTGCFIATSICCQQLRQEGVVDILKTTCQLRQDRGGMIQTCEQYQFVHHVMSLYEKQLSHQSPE
Outline: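 Compounds preincubated 30 min at room temperature with purified STEP46 (1 ng/well) in 50 mM Hepes, 1 mM DTT, 0.02% Brij35, then 10 μM DiFMUP (final) added for 90 min at 27 °C; 2% DMSO, fluorescence at 360/460 nm. IC50 from four-parameter fit of % inhibition; activators reported as negative % inhibition at 25, 50 and 100 uM.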

`CNc1nc(-c2cccnc2)nc2cc(-c3ccccc3C#N)ccc12` [Compound 1363] and `CNc1nc(-c2cccnc2)nc2ccc(-c3csc4ccccc34)cc12` [Compound 1339] fall in the same range of IC50: 1000 to 10000 nM for the first, 1000 to 10000 nM for the second.

`CNc1nc(-c2cccnc2)nc2cc(-c3ccc(F)c(F)c3)c(C)cc12` [Compound 1407] and `CN(C)c1nc(-c2cccnc2)nc2cc(-c3cc(F)ccc3F)ccc12` [Compound 1396] fall in the same range of IC50: 1000 to 10000 nM for the first, 1000 to 10000 nM for the second.

`COc1ccc2nc(-c3cccnc3)nc(Nc3nc(-c4ccccc4OC)cs3)c2c1` [Compound 436] and `COc1ccc2nc(-c3cccnc3)nc(Nc3ccc4oc(=O)n(C)c4c3)c2c1` [Compound 318] fall in the same range of IC50: 1000 to 10000 nM for the first, 1000 to 10000 nM for the second.

`CCOc1ccc2nc(-c3cccnc3)nc(Nc3ccc4c(c3)NC(=O)CO4)c2c1` [Compound 336] and `COc1ccc2nc(-c3cccnc3)nc(Nc3ccc4c(C)cc(=O)oc4c3)c2c1` [Compound 316] cannot be ordered by IC50: under 1000 nM for the first, under 1000 nM for the second.

In the case of `FC(F)Oc1cccc(Nc2nc(-c3ccnnc3)nc3cc(Cl)ccc23)c1` [Compound 1200], the IC50 is reported as 1000 to 10000 nM.
